Data published in BindingDB's records for doi:10.1016/j.ejmech.2017.04.013 (Ghent University, 2017).

Assays:
[1] = biological target: Histone deacetylase 9 (Homo sapiens, UniProt Q9UKV0); assay: ChEBML_1684755
[2] = biological target: Histone deacetylase 1 (Homo sapiens, UniProt Q13547); assay: Inhibition of HDAC1 (unknown origin)
[3] = biological target: Histone deacetylase 8 (Homo sapiens) (UniProt Q9BY41); assay: Inhibition of recombinant human HDAC8 using Boc-Lys (Ac)-AMC substrate by fluorescence assay
Sequence of Histone deacetylase 8 (Homo sapiens) (Q9BY41 whole entry, looked up): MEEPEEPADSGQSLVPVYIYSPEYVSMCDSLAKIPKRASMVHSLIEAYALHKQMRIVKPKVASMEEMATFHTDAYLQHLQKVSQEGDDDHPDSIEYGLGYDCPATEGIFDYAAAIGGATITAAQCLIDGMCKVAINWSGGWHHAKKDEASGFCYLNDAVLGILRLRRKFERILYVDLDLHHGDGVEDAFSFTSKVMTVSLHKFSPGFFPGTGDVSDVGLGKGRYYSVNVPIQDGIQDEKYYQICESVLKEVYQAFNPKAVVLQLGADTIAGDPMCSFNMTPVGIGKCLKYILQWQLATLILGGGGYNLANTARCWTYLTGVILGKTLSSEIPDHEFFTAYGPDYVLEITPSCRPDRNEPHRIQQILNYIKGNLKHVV

Sequence of Histone deacetylase 1 (Q13547 whole entry): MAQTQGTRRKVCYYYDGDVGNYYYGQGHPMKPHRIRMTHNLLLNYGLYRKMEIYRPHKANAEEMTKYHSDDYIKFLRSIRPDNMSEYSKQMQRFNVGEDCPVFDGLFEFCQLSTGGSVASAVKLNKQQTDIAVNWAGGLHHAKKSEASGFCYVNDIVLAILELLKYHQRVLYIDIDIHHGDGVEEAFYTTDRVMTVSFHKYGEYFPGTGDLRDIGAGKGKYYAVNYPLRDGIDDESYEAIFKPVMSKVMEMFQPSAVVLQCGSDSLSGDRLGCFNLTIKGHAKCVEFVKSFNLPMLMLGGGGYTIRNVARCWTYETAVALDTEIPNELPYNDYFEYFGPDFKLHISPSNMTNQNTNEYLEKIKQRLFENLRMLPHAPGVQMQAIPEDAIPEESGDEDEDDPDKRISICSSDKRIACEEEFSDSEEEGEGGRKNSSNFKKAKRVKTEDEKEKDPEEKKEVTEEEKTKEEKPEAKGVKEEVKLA
Sequence of Histone deacetylase 9 (Q9UKV0 whole entry): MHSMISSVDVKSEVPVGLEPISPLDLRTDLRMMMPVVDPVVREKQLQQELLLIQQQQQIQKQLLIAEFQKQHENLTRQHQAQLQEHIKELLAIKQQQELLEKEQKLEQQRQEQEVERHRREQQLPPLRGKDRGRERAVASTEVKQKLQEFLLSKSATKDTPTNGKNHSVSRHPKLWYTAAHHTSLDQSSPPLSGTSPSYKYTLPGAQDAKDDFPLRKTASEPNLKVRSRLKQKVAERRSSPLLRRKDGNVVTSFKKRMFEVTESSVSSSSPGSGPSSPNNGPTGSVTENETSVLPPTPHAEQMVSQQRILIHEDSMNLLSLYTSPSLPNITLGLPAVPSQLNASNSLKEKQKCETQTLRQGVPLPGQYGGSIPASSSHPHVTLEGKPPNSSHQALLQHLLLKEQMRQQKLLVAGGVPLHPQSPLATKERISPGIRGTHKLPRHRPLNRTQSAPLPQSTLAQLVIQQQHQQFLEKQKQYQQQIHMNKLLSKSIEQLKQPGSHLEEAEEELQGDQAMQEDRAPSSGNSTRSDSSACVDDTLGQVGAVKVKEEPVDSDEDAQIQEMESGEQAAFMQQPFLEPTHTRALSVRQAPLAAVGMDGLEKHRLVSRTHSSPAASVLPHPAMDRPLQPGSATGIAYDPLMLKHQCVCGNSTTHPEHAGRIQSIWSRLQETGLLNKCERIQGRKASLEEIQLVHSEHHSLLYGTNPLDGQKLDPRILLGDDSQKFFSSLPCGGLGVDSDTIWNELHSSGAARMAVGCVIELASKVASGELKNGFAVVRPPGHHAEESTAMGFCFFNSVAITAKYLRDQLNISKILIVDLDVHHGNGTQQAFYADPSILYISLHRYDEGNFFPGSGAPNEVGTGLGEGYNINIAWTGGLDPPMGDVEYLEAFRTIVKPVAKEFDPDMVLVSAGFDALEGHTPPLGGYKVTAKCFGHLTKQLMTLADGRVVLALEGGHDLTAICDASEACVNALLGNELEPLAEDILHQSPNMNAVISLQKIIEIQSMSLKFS

SMILES | IC50 [1] [nM] | IC50 [2] [nM] | IC50 [3] [nM]
Cc1nc2ccccc2n1Cc1ccc(C(=O)NO)cc1F | 70 | 9000 | 
O=C(NO)c1ccc(Cn2cc(-c3ccc(CN4CCCC4)cc3)nn2)cc1 |  |  | 280
